Columns and labels:
Assay type in all cases: cell-based, human
HepG2 cells [1] = test: Cellular cholesterol efflux toward apo A-I
Method: (§1) HepG2 (hepatocellular carcinoma) cells were growth in Eagle's minimum essential medium (EMEM). The medium was supplemented with 10% FBS, 100 units/ml penicillin, and 100 μg/ml streptomycin. Cells were cultured in 5% CO2 at 37° C. and were harvested once a week with trypsin-EDTA. For experiments, cells were trypsinized, seeded, and cultured at least for 3 days prior to the assays.
(§2) HepG2 cells were transfected with ADCY9, SREBP2, LDLr or scramble siRNA in the presence of Lipofectamine RNAiMAX in Opti-MEM for 72 h unless otherwise stated.
Cells were labeled in EMEM containing 2 μCi/ml [1,2-^3H]cholesterol plus 1% FBS for 24 h at 37° C. Then, cells were equilibrated with EMEM containing 0.2% BSA for 18 h at 37° C. with or without H89 or GSK-2033. An efflux assay was performed in the absence or presence of 10 μg/ml of apo A-I. At the end of the incubation, the medium was harvested and cells were solubilized. Medium and cells were counted for radioactivity in a […]. The percentage of efflux was calculated by subtracting the radioactive counts in the medium in the absence of cholesterol acceptors from the radioactive counts in the presence of acceptor and then dividing by the sum of the radioactive counts in the medium plus the cell fraction.

ABCA1 = test: Western blot of ABCA1 protein in HepG2 cells; details: HepG2, siAC9 plus 2 μM H89, 24 h
Method: as §1, §2
(§3) For Western blotting, cells were washed with cold PBS and then scraped and lysed in ice-cold lysis buffer (50 mM Tris, pH 7.5, 150 mM NaCl, 1% Triton X-100, 0.1% SDS, 0.5% sodium deoxycholate, 1 mM PMSF, and protease inhibitor cocktail). Lysate was microcentrifugated for 20 min at 4° C. and supernatant was assessed for cell proteins. Proteins ([…]) were separated by sodium dodecyl sulfate-polyacrylamide gel electrophoresis (SDS-PAGE) followed by Western blotting to PVDF membrane.

LDLr = test: Western blot of LDLr protein in HepG2 cells; details: for LDLr protein expression in human HepG2 cells (% of siScramble): HepG2 transfected with siRNA, Western blot, actin loading control, n=8
Method: as §1, §2, §3
Protein expression is represented as a percentage of the control, siScramble. n=8. Paired t-test: *=p≤0.05; **=p≤0.01; and ***=p≤0.001, relative to siScramble.

HepG2 cells [2] = test: 3H-CE-LDL cell association assay; details: HepG2, siAC9 plus 2 μM H89, 24 h
Method: as §1, §2

AC9 = test: Western blot of AC9 protein after siRNA transfection of HepG2 cells; details: HepG2 transfected with siRNA, actin loading control, n=8
Method: as §1, §2, §3
Results were obtained by Western blotting and actin was used as a loading control. Protein expression is represented as a percentage of the control, siScramble. n=8. Paired t-test: *=p≤0.05; **=p≤0.01; and ***=p≤0.001, relative to siScramble.

[3] = HepG2, siAC9 plus 2 μM H89, 24 h

Compound | LDLr protein expression in human HepG2 cells (% of siScramble) (LDLr) | AC9 protein expression in human HepG2 cells (% of siScramble) (AC9) [% ***] | further results
Cc1cc(C)c(S(=O)(=O)N(Cc2ccc(-c3cccc(S(C)(=O)=O)c3)cc2)Cc2ccc(C(F)(F)F)o2)c(C)c1 [GSK-2033] |  |  | ABCA1-mediated cholesterol efflux, effect on siAC9-mediated increase (HepG2 cells [1]; HepG2, siAC9 plus 5 μM GSK-2033, 24 h): significantly reduce
O=S(=O)(NCCNC/C=C/c1ccc(Br)cc1)c1cccc2cnccc12 [H89] |  |  | ABCA1 protein expression, effect on siAC9-mediated increase (ABCA1): reversed; LDLr protein expression, effect on siAC9-mediated increase (LDLr; [3]): reversed; 3H-CE-LDL association in siAC9-treated cells (HepG2 cells [2]): reduction; cholesterol efflux in siAC9-treated cells (HepG2 cells [1]; [3]): not
CC(C)c1c(C(=O)Nc2ccccc2)c(-c2ccccc2)c(-c2ccc(F)cc2)n1CC[C@@H](O)C[C@@H](O)CC(=O)O [atorvastatin, reference compound] |  |  | LDLr protein expression, combined treatment (LDLr; HepG2, 300 μM exogenous cAMP plus 5 μM atorvastatin): increased
ADCY9-1: siRNA, sense SEQ ID NO: 3 CGAAAUGGAAGAUGGGAAAUU, antisense SEQ ID NO: 4 UUUCCCAUCUUCCAUUUCGUU; targets ADCY9 mRNA Exon 2 (listed as RNA, chemistry not fully specified) | 131% ** | 24 | 
ADCY9-2: siRNA, sense SEQ ID NO: 5 CGAAACAGGAAUAGAAGAAUU, antisense SEQ ID NO: 6 UUCUUCUAUUCCUGUUUCGUU; targets ADCY9 mRNA Exon 10 (listed as RNA, chemistry not fully specified) | 122% ** | 16 | 
ADCY9-3: siRNA, sense SEQ ID NO: 7 AGGAAGAGGUCAUAAAGAAUU, antisense SEQ ID NO: 8 UUCUUUAUGACCUCUUCCUUU; targets ADCY9 mRNA Exon 5-6 (listed as RNA, chemistry not fully specified) | 126% * | 17 | 
ADCY9-4: siRNA, sense SEQ ID NO: 9 GCACCAAGAUCCAGAGCAUUU, antisense SEQ ID NO: 10 AUGCUCUGGAUCUUGGUGCUU; targets ADCY9 mRNA Exon 10 (listed as RNA, chemistry not fully specified) | 150% ** | 15 | 
ADCY9-ID1039: siRNA, sense SEQ ID NO: 1 CCUGAUGAAAGAUUACUUUTT, antisense SEQ ID NO: 2 AAAGUAAUCUUUCAUCAGGCT; targets ADCY9 mRNA Exon 5 (chemistry not fully specified) | 123% * | 15 | 
